This note sets out measurements from ChEMBL document CHEMBL1146927, “Semi-synthetic preparation of the rare, cytotoxic, deep-sea sourced sponge metabolites discorhabdins P and U” (Bioorg Med Chem Lett, 2006).

The test system of one assay is Bacillus subtilis. The assay is described as follows: Zone of Bacillus subtilis inhibition at 30 ug. The format is functional.
The test system of another assay is P388. The assay can be described thus: Antiproliferative activity against murine P388D1 cell line. The format is functional, cell-based. The note with it: Mus musculus.
In another assay the test system is Escherichia coli. The assay is described as follows: Zone of Escherichia coli inhibition at 30 ug. The format is functional.

≈ marks a conversion by molar mass, not a printed value.

As to `CSC1=CC(=O)C(Br)=C[C@]12C=CNC1=C2C2=NCCc3cn(C)c(c32)C1=O` [DISCORHABDIN U], the inhibition zone (IZ) in the assay with Bacillus subtilis was 3 mm; in the assay with Escherichia coli, 0 mm. In the assay with P388, the IC50 came to 0.089 mg/L (≈ 0.201 µM).

For the compound `O=C1C=C(SC(=O)c2ccccc2)[C@@]2(C=CNC3=C2C2=NCCc4cn(C(=O)c5ccccc5)c(c42)C3=O)C=C1Br`, the inhibition zone (IZ) in the assay with Bacillus subtilis and in the assay with Escherichia coli was 0 mm each time. Moreover, the IC50 in the assay on P388 was found to be 0.918 mg/L (≈ 1.47 µM).

In the case of `Cn1cc2c3c1C(=O)C1=C(C3=NCC2)C2(C=C(Br)C(=O)C(Br)=C2)CCN1` [DISCORHABDIN], the values for the inhibition zone (IZ) in the assay on Bacillus subtilis and in the assay with Escherichia coli were 8 mm and 0 mm, respectively. The IC50 in the assay with P388 worked out at 0.182 mg/L (≈ 0.381 µM).

Consider `O=C1C=C2S[C@H]3C[C@]2(C=C1Br)C1=C(N3)C(=O)c2[nH]cc3c2C1=NCC3` [(+)-DISCORHABDIN B], for which the inhibition zone (IZ) in the assay on Bacillus subtilis came to 6 mm; in the assay on Escherichia coli, 1 mm. This compound also gave an IC50 with P388 of 0.044 mg/L (≈ 0.106 µM).

Regarding `O=C1C(Br)=CC2(C=C1Br)CCNC1=C2C2=NCCc3c[nH]c(c32)C1=O` [DISCORHABDIN C], the inhibition zone (IZ) amounted to 8 mm in the assay with Bacillus subtilis and 1 mm with Escherichia coli. The same compound came in with an IC50 in the assay on P388 of 0.062 mg/L (≈ 0.134 µM).

For the compound `CSC1=CC(=O)C(Br)=C[C@]12C=CNC1=C2C2=NCCc3c[nH]c(c32)C1=O`, the inhibition zone (IZ) turned out to be 3 mm in the assay on Bacillus subtilis and 0 mm in the assay with Escherichia coli. The compound also returned an IC50 in the assay on P388 of 0.081 mg/L (≈ 0.189 µM).

As a reminder, the IC50 is the concentration that gives 50% inhibition.
